We go through 34 compounds from patent publication US9321760B2 (Merck Patent GmbH, priority 2011, dated 2016).

Each structure is given as a SMILES string.

The target in the experiment is P70S6K (T412E mutant) (Homo sapiens (Human), UniProt P23443, T412E). In words: P70S6K enzyme assay. It is filed as biochemical. To be noted: 3 nM P70S6K T412E mutant, 24 μM ATP, 1 μM FITC-AHA-AKRRRLSSLRA-OH substrate peptide, 90 min at 25° C. Put shortly:
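IC50s come from mobility-shift separation of phospho-product from FITC-AHA-AKRRRLSSLRA-OH substrate (1 μM) after the reaction was quenched with 10 mM EDTA. The reaction used 3 nM T412E-mutant enzyme and 24 μM ATP, running 90 min at 25° C in 100 mM Hepes pH 7.5 buffer.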

Sequence of P70S6K (T412E mutant) (P23443 whole entry T412E): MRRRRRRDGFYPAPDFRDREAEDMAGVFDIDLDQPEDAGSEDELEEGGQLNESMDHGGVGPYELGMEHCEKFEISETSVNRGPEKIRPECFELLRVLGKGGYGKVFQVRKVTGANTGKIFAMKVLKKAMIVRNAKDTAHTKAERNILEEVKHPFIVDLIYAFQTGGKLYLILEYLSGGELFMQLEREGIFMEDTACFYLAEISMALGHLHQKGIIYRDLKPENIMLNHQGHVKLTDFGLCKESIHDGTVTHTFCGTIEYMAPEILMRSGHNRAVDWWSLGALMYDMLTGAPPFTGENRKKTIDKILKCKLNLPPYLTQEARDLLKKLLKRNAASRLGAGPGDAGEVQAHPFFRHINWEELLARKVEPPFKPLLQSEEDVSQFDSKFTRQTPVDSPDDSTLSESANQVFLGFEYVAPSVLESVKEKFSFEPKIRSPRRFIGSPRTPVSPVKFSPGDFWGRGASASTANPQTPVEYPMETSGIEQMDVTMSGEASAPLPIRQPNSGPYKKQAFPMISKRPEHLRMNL

`NCC(c1ccc(C(F)(F)F)cc1F)N1CCN(c2ncnc(N)c2-c2ccc(F)cc2)CC1` (stereo not shown) [Example 170, 6-{4-[2-Amino-1-(2-fluoro-4-trifluoromethyl-phenyl)-ethyl]-piperazin-1-yl}-5-(4-fluoro-phenyl)-pyrimidin-4-ylamine]: the IC50 stood at 12 nM.
For `C[C@H](c1ccccc1)[C@H](CN)N1CCN(c2ncnc(N)c2-c2ccc(F)cc2)CC1` [Example 171, 6-[4-((1R,2R)-1-Aminomethyl-2-phenyl-propyl)-piperazin-1-yl]-5-(4-fluoro-phenyl)-pyrimidin-4-ylamine], the IC50 amounted to 73 nM.
To `C[C@@H](c1ccccc1)[C@H](CN)N1CCN(c2ncnc(N)c2-c2ccc(F)cc2)CC1` [Example 172, 6-[4-((1R,2S)-1-Aminomethyl-2-phenyl-propyl)-piperazin-1-yl]-5-(4-fluoro-phenyl)-pyrimidin-4-ylamine] belongs 280 nM; to `N#CC(c1ccc(Cl)nc1)N1CCN(c2ncnc(N)c2-c2ccc(F)cc2)CC1` (stereo not shown) [Example 173, {4-[6-Amino-5-(4-fluoro-phenyl)-pyrimidin-4-yl]-piperazin-1-yl}-(6-chloro-pyridin-3-yl)-acetonitrile], 110 nM.
To `NCC(c1ccc(Cl)nc1)N1CCN(c2ncnc(N)c2-c2ccc(F)cc2)CC1` (stereo not shown) [Example 174, 6-{4-[2-Amino-1-(6-chloro-pyridin-3-yl)-ethyl]-piperazin-1-yl}-5-(4-fluoro-phenyl)-pyrimidin-4-ylamine] belongs 8.5 nM; to `NC[C@@H](c1ccc(Cl)nc1)N1CCN(c2ncnc(N)c2-c2ccc(F)cc2)CC1` [Example 175, 6-{4-[(R)-2-Amino-1-(6-chloro-pyridin-3-yl)-ethyl]-piperazin-1-yl}-5-(4-fluoro-phenyl)-pyrimidin-4-ylamine], 2.6 nM; to `NC[C@H](c1ccc(Cl)nc1)N1CCN(c2ncnc(N)c2-c2ccc(F)cc2)CC1` [Example 176, 6-{4-[(S)-2-Amino-1-(6-chloro-pyridin-3-yl)-ethyl]-piperazin-1-yl}-5-(4-fluoro-phenyl)-pyrimidin-4-ylamine], 0.8 nM.
To `CCc1c(N)ncnc1N1CCN(C(CN)c2ccc(Cl)nc2)CC1` (stereo not shown) [Example 177, 6-{4-[2-Amino-1-(6-chloro-pyridin-3-yl)-ethyl]-piperazin-1-yl}-5-ethyl-pyrimidin-4-ylamine] belongs 200 nM; to `CCc1c(N)ncnc1N1CCN(C(CN)c2ccc(Cl)cc2)CC1` (stereo not shown) [Example 178, 6-{4-[2-Amino-1-(4-chloro-phenyl)-ethyl]-piperazin-1-yl}-5-ethyl-pyrimidin-4-ylamine], 69 nM.
Take `CCc1c(N)ncnc1N1CCN([C@H](CN)c2ccc(Cl)cc2)CC1` [Example 179, 6-{4-[(S)-2-Amino-1-(4-chloro-phenyl)-ethyl]-piperazin-1-yl}-5-ethyl-pyrimidin-4-ylamine]: the IC50 worked out at 13 nM. Compared with the last compound, the IC50 is about 5.3-fold lower.
To `CCc1c(N)ncnc1N1CCN([C@@H](CN)c2ccc(Cl)cc2)CC1` [Example 180, 6-{4-[(R)-2-Amino-1-(4-chloro-phenyl)-ethyl]-piperazin-1-yl}-5-ethyl-pyrimidin-4-ylamine] belongs 190 nM.
To `CCc1c(N)ncnc1N1CCN(C(CN)c2ccc3c(c2)OCCO3)CC1` (stereo not shown) [Example 181, 6-{4-[2-Amino-1-(2,3-dihydro-benzo[1,4]dioxin-6-yl)-ethyl]-piperazin-1-yl}-5-ethyl-pyrimidin-4-ylamine] belongs 180 nM; to `COc1ccc(C(C#N)N2CCN(c3ncnc(N)c3-c3ccc(F)cc3)CC2)cn1` (stereo not shown) [Example 182, 2-(4-(6-amino-5-(4-fluorophenyl)pyrimidin-4-yl)piperazin-1-yl)-2-(6-methoxypyridin-3-yl)acetonitrile], 220 nM.
To `COc1ccc(C(CN)N2CCN(c3ncnc(N)c3-c3ccc(F)cc3)CC2)cn1` (stereo not shown) [Example 183, 6-(4-(2-amino-1-(6-methoxypyridin-3-yl)ethyl)piperazin-1-yl)-5-(4-fluorophenyl)pyrimidin-4-amine] belongs 3.4 nM.
For the compound `CS(=O)(=O)c1ccc(C(C#N)N2CCN(c3ncnc(N)c3-c3cn[nH]c3)CC2)cc1` (stereo not shown) [Example 184, 2-(4-(6-amino-5-(1H-pyrazol-4-yl)pyrimidin-4-yl)piperazin-1-yl)-2-(4-(methylsulfonyl)phenyl)acetonitrile], the half-inhibitory concentration (IC50) is > 1000 nM.
To `CS(=O)(=O)c1ccc(C(CN)N2CCN(c3ncnc(N)c3-c3cn[nH]c3)CC2)cc1` (stereo not shown) [Example 185, 6-(4-(2-amino-1-(4-(methylsulfonyl)phenyl)ethyl)piperazin-1-yl)-5-(1H-pyrazol-4-yl)pyrimidin-4-amine] belongs 60 nM; to `NCC(c1ccc(OC(F)(F)F)cc1)N1CCN(c2ncnc(N)c2-c2cn[nH]c2)CC1` (stereo not shown) [Example 186, 6-(4-(2-amino-1-(4-(trifluoromethoxy)phenyl)ethyl)piperazin-1-yl)-5-(1H-pyrazol-4-yl)pyrimidin-4-amine], 1.4 nM; to `NCC(c1ccc(Cl)c(F)c1)N1CCN(c2ncnc(N)c2-c2cn[nH]c2)CC1` (stereo not shown) [Example 187, 6-(4-(2-amino-1-(4-chloro-3-fluorophenyl)ethyl)piperazin-1-yl)-5-(1H-pyrazol-4-yl)pyrimidin-4-amine], 6.1 nM.
To `CCc1c(N)ncnc1N1CCN(C(CN)C2CCCCC2)CC1` (stereo not shown) [Example 188, 6-[4-(2-Amino-1-cyclohexyl-ethyl)-piperazin-1-yl]-5-ethyl-pyrimidin-4-ylamine] belongs > 1000 nM; to `N#CC(c1ccc(C(F)(F)F)nc1)N1CCN(c2ncnc(N)c2-c2ccc(F)cc2)CC1` (stereo not shown) [Example 189, {4-[6-Amino-5-(4-fluoro-phenyl)-pyrimidin-4-yl]-piperazin-1-yl}-(6-trifluoromethyl-pyridin-3-yl)-acetonitrile], 140 nM.
To `N#CC(c1cccnc1)N1CCN(c2ncnc(N)c2-c2ccc(F)cc2)CC1` (stereo not shown) [Example 190, {4-[6-Amino-5-(4-fluoro-phenyl)-pyrimidin-4-yl]-piperazin-1-yl}-pyridin-3-yl-acetonitrile] belongs 230 nM.
Consider `N#CC(C1CCCCC1)N1CCN(c2ncnc(N)c2-c2ccc(F)cc2)CC1` (stereo not shown) [Example 191, {4-[6-Amino-5-(4-fluoro-phenyl)-pyrimidin-4-yl]-piperazin-1-yl}-cyclohexyl-acetonitrile], for which the IC50 was determined as 200 nM.
`NCC(c1cc(C(F)(F)F)ccc1F)N1CCN(c2ncnc(N)c2-c2ccc(F)cc2)CC1` (stereo not shown) [Example 192, 6-{4-[2-Amino-1-(2-fluoro-5-trifluoromethyl-phenyl)-ethyl]-piperazin-1-yl}-5-(4-fluoro-phenyl)-pyrimidin-4-ylamine]: the half-inhibitory concentration (IC50) is 13 nM.
To `NCC(c1cccnc1)N1CCN(c2ncnc(N)c2-c2ccc(F)cc2)CC1` (stereo not shown) [Example 193, 6-[4-(2-Amino-1-pyridin-3-yl-ethyl)-piperazin-1-yl]-5-(4-fluoro-phenyl)-pyrimidin-4-ylamine] belongs 31 nM; to `NCC(c1ccc(C(F)(F)F)nc1)N1CCN(c2ncnc(N)c2-c2ccc(F)cc2)CC1` (stereo not shown) [Example 194, 6-{4-[2-Amino-1-(6-trifluoromethyl-pyridin-3-yl)-ethyl]-piperazin-1-yl}-5-(4-fluoro-phenyl)-pyrimidin-4-ylamine], 9.8 nM.
To `Nc1ncnc(N2CCC(N)(CNC(=O)c3ccc(F)cc3F)C2)c1Br` (stereo not shown) [Example 195, N-[3-Amino-1-(6-amino-5-bromo-pyrimidin-4-yl)-pyrrolidin-3-ylmethyl]-2,4-difluoro-benzamide] belongs 3.3 nM; to `N#Cc1c(N)ncnc1N1CCC(N)(CNC(=O)c2ccc(F)cc2F)C1` (stereo not shown) [Example 196, N-[3-Amino-1-(6-amino-5-cyano-pyrimidin-4-yl)-pyrrolidin-3-ylmethyl]-2,4-difluoro-benzamide], 50 nM; to `NC(=O)c1c(N)ncnc1N1CCC(N)(CNC(=O)c2ccc(F)cc2F)C1` (stereo not shown) [Example 197, 4-Amino-6-{3-amino-3-[(2,4-difluoro-benzoylamino)-methyl]-pyrrolidin-1-yl}-pyrimidine-5-carboxamide], 530 nM.
To `Nc1ncnc(N2CCC(N)(CNC(=O)c3ccc(F)cc3F)C2)c1-c1ccc(F)cc1` (stereo not shown) [Example 198, N-{3-Amino-1-[6-amino-5-(4-fluoro-phenyl)-pyrimidin-4-yl]-pyrrolidin-3-ylmethyl}-2,4-difluoro-benzamide] belongs 4.8 nM; to `N#Cc1ccc(-c2c(N)ncnc2N2CCC(N)(CNC(=O)c3ccc(F)cc3F)C2)cc1` (stereo not shown) [Example 199, N-{3-Amino-1-[6-amino-5-(4-cyano-phenyl)-pyrimidin-4-yl]-pyrrolidin-3-ylmethyl}-2,4-difluoro-benzamide], 11 nM.
`Nc1ncnc(N2CCC(N)(CNC(=O)c3ccc(F)cc3F)C2)c1-c1ccc(Oc2ccccc2)cc1` (stereo not shown) [Example 200, N-{3-Amino-1-[6-amino-5-(4-phenoxy-phenyl)-pyrimidin-4-yl]-pyrrolidin-3-ylmethyl}-2,4-difluoro-benzamide] displayed an IC50 of 120 nM.
With `COc1ccc(-c2c(N)ncnc2N2CCC(N)(CNC(=O)c3ccc(F)cc3F)C2)cn1` (stereo not shown) [Example 201, N-{3-Amino-1-[6-amino-5-(6-methoxy-pyridin-3-yl)-pyrimidin-4-yl]-pyrrolidin-3-ylmethyl}-2,4-difluoro-benzamide], the IC50 worked out at 9.5 nM.
To `Nc1ncnc(N2CCC(N)(CNC(=O)c3ccc(F)cc3F)C2)c1-c1ccc(C(F)(F)F)cc1` (stereo not shown) [Example 202, N-{3-Amino-1-[6-amino-5-(4-trifluoromethyl-phenyl)-pyrimidin-4-yl]-pyrrolidin-3-ylmethyl}-2,4-difluoro-benzamide] belongs 9.1 nM; to `Nc1ncnc(N2CCC(N)(CNC(=O)c3ccc(F)cc3F)C2)c1-c1ccccc1` (stereo not shown) [Example 203, N-[3-Amino-1-(6-amino-5-phenyl-pyrimidin-4-yl)-pyrrolidin-3-ylmethyl]-2,4-difluoro-benzamide], 5.3 nM.
